The source made the active and inactive calls. The rule behind the calls is not given here.

The target of series [1] is EGFR (Epidermal growth factor receptor) (Homo sapiens, UniProt P00533). Kind of series: Inhibition of recombinant human GST-tagged EGFR (668 to 1210 residues) expressed in baculovirus expression system at 100 nM using Tyr04 peptide as substrate incubated for 1 hr by Z'lyte assay relative to control. The note with it: probe Tyr04 peptide.
Series [2] concerns the target T1, Tyrosine-protein kinase JAK3 (Homo sapiens, UniProt P52333).
T1 sequence (P52333 whole entry): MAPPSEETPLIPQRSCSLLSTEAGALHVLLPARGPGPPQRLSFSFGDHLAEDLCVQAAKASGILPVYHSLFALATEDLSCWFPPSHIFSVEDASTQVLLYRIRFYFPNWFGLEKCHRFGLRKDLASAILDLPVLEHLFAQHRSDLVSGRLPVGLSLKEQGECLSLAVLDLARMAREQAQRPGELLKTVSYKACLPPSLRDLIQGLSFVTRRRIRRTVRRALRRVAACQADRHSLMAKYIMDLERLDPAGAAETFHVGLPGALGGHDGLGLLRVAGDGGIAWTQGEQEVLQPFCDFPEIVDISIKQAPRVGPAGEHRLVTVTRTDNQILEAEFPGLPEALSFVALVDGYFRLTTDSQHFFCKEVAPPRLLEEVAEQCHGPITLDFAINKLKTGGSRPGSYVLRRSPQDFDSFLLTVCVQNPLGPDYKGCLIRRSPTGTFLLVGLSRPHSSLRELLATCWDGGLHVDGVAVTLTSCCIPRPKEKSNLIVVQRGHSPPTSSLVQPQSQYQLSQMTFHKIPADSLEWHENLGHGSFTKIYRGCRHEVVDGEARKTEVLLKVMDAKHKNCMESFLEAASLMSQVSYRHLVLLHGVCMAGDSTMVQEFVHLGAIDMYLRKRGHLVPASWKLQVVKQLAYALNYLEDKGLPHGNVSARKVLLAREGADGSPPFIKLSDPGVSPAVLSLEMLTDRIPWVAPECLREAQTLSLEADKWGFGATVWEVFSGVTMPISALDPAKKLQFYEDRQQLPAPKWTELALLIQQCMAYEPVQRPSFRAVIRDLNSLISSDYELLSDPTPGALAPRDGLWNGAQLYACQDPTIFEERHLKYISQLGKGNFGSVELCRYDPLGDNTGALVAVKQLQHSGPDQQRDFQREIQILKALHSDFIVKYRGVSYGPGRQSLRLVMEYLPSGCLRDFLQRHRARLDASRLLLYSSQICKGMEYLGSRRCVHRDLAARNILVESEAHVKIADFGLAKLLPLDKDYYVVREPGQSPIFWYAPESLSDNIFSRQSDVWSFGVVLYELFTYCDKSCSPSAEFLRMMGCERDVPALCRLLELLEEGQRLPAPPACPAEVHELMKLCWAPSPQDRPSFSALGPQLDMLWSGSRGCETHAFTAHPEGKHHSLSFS

For series [3], the target named is T2, Tyrosine-protein kinase JAK3 (Mus musculus) (UniProt Q62137).
T2 sequence (whole entry): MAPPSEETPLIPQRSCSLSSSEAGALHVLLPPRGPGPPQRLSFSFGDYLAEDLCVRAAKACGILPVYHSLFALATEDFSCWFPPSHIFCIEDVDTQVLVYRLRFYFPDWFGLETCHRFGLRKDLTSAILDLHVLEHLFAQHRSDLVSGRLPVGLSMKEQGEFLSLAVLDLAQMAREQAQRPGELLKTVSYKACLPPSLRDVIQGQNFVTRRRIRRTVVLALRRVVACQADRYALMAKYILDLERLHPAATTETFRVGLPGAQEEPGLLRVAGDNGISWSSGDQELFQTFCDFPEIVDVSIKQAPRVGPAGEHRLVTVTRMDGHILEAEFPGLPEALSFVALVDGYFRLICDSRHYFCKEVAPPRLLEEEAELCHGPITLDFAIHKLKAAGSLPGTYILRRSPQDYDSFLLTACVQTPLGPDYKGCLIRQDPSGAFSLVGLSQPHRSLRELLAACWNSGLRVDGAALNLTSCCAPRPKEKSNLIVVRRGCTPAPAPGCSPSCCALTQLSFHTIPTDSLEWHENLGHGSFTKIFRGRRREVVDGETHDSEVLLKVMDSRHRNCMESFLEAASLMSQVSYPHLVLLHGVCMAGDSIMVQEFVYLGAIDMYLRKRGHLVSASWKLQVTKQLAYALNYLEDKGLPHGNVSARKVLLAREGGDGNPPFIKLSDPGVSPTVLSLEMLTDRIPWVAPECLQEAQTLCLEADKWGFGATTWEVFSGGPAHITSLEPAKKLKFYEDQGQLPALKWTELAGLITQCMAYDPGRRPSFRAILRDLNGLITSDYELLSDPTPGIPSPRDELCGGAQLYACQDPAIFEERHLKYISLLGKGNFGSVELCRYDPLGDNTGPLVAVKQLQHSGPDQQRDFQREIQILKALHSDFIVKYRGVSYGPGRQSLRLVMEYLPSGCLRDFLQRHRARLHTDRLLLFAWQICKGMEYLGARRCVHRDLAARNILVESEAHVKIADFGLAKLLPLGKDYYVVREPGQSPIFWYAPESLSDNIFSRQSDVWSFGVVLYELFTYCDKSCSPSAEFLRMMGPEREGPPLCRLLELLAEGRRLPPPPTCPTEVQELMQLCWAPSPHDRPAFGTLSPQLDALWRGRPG
Kind of series: Inhibition of JAK3 in anti-CD3/-CD28 coated mouse T cells assessed as reduction in IL2-induced STAT5 phosphorylation preincubated for 1 hr followed by IL2 stimulation and measured after 30 mins by Western blot analysis. The note with it: T cell. (In general: A western blot detects proteins with antibodies after separation by electrophoresis.)

The target of series [4] is T3, Tyrosine-protein kinase JAK3 (Homo sapiens) (UniProt P52333).
T3 sequence (whole entry): T1 sequence (P52333 whole entry)

The target of series [5] is ERBB2 (Receptor tyrosine-protein kinase erbB-2) (Homo sapiens, UniProt P04626). Kind of series: Inhibition of His-tagged human recombinant ERBB2 (676 to 1255 residues) expressed in baculovirus expression system at 100 nM using Tyr 06 as substrate preincubated for 1 hr in presence of ATP by Z'-LYTE assay relative to control. The note with it: probe Tyr 06.
A short description of series [6]: Plasma clearance in ICR mouse at 10 mg/kg, iv administered as single dose by LC-MS/MS analysis. The note with it: in vivo. In kind it is ADME, organism-based.
The next series relates to Mus musculus. Kind of series: Immunosuppressive activity in Balb/c mouse model of oxazolone-induced delayed type hypersensitivity assessed as reduction in neutrophil leukocyte infiltration at 30 mg/kg, po measured after 7 days by H and E staining based histopathological analysis. In kind it is functional, organism-based. The note with it: time 7.0 day.
The nature of series [7]: Apparent volume of distribution in ICR mouse at 30 mg/kg, po administered as single dose via gavage by LC-MS/MS analysis. The note with it: in vivo. In kind it is ADME, organism-based.
Series [8] can be described thus: MRT (0 to infinity) in ICR mouse at 30 mg/kg, po administered as single dose via gavage by LC-MS/MS analysis. In kind it is ADME, organism-based. The note with it: in vivo.
The nature of series [9]: Cytotoxicity against IL-4-treated mouse T cells assessed as reduction in cell viability at 10 uM measured after 72 hrs by MTS assay. In kind it is cell-based. A general note: Formazan colour is commonly taken as a measure of viable cells.
A short description of series [10]: Plasma clearance in ICR mouse at 30 mg/kg, po administered as single dose via gavage by LC-MS/MS analysis. In kind it is ADME, organism-based. The note with it: in vivo.

EGFR (Epidermal growth factor receptor), sequence (P00533 whole entry, the tested form may be a part): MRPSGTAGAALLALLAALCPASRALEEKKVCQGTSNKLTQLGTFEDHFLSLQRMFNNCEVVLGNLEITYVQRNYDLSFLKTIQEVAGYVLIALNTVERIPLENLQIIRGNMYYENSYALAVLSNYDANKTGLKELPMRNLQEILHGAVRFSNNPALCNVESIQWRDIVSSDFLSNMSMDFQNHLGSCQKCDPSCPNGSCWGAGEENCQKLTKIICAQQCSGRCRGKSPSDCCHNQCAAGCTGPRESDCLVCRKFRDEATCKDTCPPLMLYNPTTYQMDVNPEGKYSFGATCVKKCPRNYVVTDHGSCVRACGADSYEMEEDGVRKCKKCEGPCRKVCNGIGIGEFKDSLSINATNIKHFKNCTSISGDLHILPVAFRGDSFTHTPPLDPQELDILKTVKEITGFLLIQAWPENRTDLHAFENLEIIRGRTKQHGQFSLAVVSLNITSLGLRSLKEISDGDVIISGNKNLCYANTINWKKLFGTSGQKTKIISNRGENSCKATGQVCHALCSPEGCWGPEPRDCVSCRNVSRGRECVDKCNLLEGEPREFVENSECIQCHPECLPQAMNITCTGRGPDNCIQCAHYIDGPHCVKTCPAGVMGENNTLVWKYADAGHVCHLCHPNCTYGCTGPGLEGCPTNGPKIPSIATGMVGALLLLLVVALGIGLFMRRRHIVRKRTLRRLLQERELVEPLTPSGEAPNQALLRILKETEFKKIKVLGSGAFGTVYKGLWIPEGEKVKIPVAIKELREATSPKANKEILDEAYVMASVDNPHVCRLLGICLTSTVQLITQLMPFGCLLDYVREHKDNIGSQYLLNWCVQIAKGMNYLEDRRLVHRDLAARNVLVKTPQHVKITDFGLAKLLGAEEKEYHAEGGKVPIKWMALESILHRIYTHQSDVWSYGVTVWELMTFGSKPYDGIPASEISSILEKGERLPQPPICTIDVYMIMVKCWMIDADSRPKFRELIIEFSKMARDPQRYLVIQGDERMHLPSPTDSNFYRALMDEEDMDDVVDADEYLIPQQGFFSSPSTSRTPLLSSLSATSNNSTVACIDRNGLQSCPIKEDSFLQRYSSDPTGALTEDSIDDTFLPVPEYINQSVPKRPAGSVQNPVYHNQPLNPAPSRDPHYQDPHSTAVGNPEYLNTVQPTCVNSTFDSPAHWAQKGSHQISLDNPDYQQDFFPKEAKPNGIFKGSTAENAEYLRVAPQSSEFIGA
ERBB2 (Receptor tyrosine-protein kinase erbB-2), sequence (P04626 whole entry, the tested form may be a part): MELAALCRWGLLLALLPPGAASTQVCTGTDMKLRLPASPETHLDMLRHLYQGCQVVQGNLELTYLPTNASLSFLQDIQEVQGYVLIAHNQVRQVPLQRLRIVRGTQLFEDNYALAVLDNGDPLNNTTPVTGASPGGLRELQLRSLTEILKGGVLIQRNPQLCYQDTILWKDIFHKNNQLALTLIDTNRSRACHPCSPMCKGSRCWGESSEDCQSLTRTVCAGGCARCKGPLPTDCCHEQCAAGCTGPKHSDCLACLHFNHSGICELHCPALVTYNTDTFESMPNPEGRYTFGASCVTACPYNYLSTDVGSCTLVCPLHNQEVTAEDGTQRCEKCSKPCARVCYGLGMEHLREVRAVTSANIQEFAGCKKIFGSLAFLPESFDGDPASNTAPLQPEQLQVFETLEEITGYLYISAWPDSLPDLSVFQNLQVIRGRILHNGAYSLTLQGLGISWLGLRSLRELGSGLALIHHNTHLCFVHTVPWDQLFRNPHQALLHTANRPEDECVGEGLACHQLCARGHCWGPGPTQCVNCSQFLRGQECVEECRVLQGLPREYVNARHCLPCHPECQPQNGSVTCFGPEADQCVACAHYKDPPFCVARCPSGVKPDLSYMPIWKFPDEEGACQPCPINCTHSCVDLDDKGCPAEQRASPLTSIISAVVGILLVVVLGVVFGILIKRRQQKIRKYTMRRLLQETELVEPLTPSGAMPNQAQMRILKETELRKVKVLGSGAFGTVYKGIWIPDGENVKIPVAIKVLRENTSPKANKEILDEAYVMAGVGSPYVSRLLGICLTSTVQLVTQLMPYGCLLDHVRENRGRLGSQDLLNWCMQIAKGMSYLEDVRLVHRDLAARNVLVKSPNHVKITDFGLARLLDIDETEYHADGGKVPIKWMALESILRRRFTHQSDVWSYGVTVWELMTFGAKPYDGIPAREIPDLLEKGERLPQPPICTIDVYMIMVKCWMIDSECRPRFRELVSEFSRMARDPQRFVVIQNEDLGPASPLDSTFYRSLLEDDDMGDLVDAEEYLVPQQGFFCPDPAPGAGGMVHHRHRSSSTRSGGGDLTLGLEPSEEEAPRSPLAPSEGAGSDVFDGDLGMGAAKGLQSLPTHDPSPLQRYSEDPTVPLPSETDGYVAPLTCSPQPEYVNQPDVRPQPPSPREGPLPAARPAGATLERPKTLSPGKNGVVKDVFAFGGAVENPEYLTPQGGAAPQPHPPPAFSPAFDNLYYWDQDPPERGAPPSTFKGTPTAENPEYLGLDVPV

What is called inhibition is the relative decrease from the control value, in per cent. Usually IC50 stands for the point on the concentration scale where inhibition reaches its midpoint. A low value points to inhibition by little substance. One may read the MRT inf as the average time that molecules of a dose stay in the body. With `C=CC(=O)Nc1ccc(-c2ccnc(Nc3ccc(N4CCOCC4)cc3)n2)cc1`, the figures for the inhibition at 1 h, 0.1 µM in series [1] and in series [5] were 1.2% and 19.2%, respectively. In addition, 1.7 nM corresponded to half-maximal inhibition in series [2] (IC50). Further, in series [3], the inhibition result was “Dose-dependent effect”. Besides, the TDI entry in series [4] is “Active”. The CLz/F in [6] worked out at 136 mL/min/kg; in series [10], 1619 mL/min/kg. Moreover, the result with Mus musculus was Active. In addition, the Vz in [7] was 220.42 L/kg. In series [8], this compound yielded an MRT inf of 1.42 h. The Activity result in [9] is on record as “Non-Toxic”.

For the origin of these results see ChEMBL document CHEMBL4680201, “Design, synthesis, and pharmacological evaluation of 4- or 6-phenyl-pyrimidine derivatives as novel and selective Janus kinase 3 inhibitors” (Eur J Med Chem, 2020).
